Results: patent US7582773B2, “Substituted phenyl indoles” (Wyeth, priority 2003, dated 2009)

Key:
human PAI-1 = human PAI-1 (Homo sapiens, UniProt P05121); assay: Assay for determining the IC50 of inhibition of PAI-1 (active PAI-1 bound to tPA-coated plate); format: biochemical; conditions: test compound 1-50 μM, pH 7.5
Description: Assay for determining the IC50 of inhibition of PAI-1. This assay is based upon the non-SDS dissociable interaction between tPA and active PAI-1. Assay plates are initially coated with human tPA (10 μg/ml). Test compounds are dissolved in DMSO at 10 mM, then diluted with physiologic buffer (pH 7.5) to a final concentration of 1-50 μM. The test compounds are incubated with human PAI-1 (50 ng/ml) for 15 minutes at room temperature. The tPA-coated plate is washed with a solution of 0.05% Tween 20 and 0.1% BSA, then the plate is blocked with a solution of 3% BSA. An aliquot of the test compound/PAI-1 solution is then added to the tPA-coated plate, incubated at room temperature for 1 hour, and washed. Active PAI-1 bound to the plate is assessed by adding an aliquot of a 1:1000 dilution of the 33B8 monoclonal antibody against human PAI-1, and incubating the plate at room temperature for 1 hour (Molecular Innovations, Royal Oak, Mich.). The plate is again washed, and a solution of goat anti-mouse IgG-alkaline phosphatase conjugate is added at a 1:50,000 dilution in goat serum. The plate is incubated 30 minutes at room temperature, washed, and a solution of alkaline phosphatase substrate is added. The plate is incubated 45 minutes at room temperature, and color development is determined at OD405 nm. The quantitation of active PAI-1 bound to tPA at varying concentrations of the test compound is used to determine the IC50. Results are analyzed using a logarithmic best-fit equation. The assay sensitivity is 5 ng/ml of human PAI-1 as determined from a standard curve ranging from 0-100 ng/ml.

[1] = target: T1, recombinant human plasminogen activator inhibitor-1 (PAI-1) (Homo sapiens, UniProt P05121); assay: Screening for PAI-1 inhibition (chromogenic tPA activity assay); format: biochemical
T1 construct: purchased Molecular Innovations, Royal Oak, Mich
T1 sequence (P05121 24-402): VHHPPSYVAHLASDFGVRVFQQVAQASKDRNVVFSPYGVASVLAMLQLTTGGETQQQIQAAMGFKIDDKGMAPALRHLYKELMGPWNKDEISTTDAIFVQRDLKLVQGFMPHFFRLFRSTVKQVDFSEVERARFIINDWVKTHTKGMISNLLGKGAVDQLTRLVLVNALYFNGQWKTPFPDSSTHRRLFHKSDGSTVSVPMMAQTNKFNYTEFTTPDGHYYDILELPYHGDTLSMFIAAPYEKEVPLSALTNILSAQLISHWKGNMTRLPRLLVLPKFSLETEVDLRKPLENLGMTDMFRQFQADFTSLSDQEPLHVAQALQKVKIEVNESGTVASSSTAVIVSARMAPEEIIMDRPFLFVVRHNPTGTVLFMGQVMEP
Description: Screening for PAI-1 inhibition. Test compounds are dissolved in DMSO at a final concentration of 10 mM, then diluted 100× in physiologic buffer. The inhibitory assay is initiated by the addition of the test compound (1-100 μM final concentration, maximum DMSO concentration of 0.2%) in a pH 6.6 buffer containing 140 nM recombinant human plasminogen activator inhibitor-1 (PAI-1; Molecular Innovations, Royal Oak, Mich.). Following a 1 hour incubation at room temperature, 70 nM of recombinant human tissue plasminogen activator (tPA) is added, and the combination of the test compound, PAI-1 and tPA is incubated for an additional 30 minutes. Following the second incubation, Spectrozyme-tPA (American Diagnostica, Greenwich, Conn.), a chromogenic substrate for tPA, is added and absorbance read at 405 nm at 0 and 60 minutes. Relative PAI-1 inhibition is equal to the residual tPA activity in the presence of the test compounds and PAI-1. Control treatments include the complete inhibition of tPA by PAI-1 at the molar ratio employed (2:1), and the absence of any effect of the test compound on tPA alone.

human PAI-1, sequence (P05121 24-402): as above

IC50 (human PAI-1) | melting point | inhibition at 25 µM [1] | SMILES
47.7 µM | 190 to 192 °C |  | Cc1c(Cc2ccccc2)c2cc(-c3ccc(OCc4nnn[nH]4)cc3)ccc2n1Cc1ccccc1 [1,3-Dibenzyl-2-methyl-5-[4-(1H-tetrazol-5-ylmethoxy)-phenyl]-1H-indole]
 |  | 51% | c1ccc(Cc2c(-c3ccccc3)n(Cc3ccccc3)c3ccc(-c4ccc(OCc5nnn[nH]5)cc4)cc23)cc1 [1,3-Dibenzyl-2-phenyl-5-[4-(1H-tetrazol-5-ylmethoxy)-phenyl]-1H-indole]
32.8 µM |  |  | Cc1c(-c2ccccc2)n(C)c2cccc(-c3ccc(OCc4nnn[nH]4)cc3)c12 [1,3-Dimethyl-2-phenyl-4-[4-(1H-tetrazol-5-ylmethoxy)-phenyl]-1H-indole]
16.5 µM |  |  | Cc1c(-c2ccccc2)n(C)c2ccc(-c3ccc(OCc4nnn[nH]4)cc3)cc12 [1,3-Dimethyl-2-phenyl-5-[4-(1H-tetrazol-5-ylmethoxy)-phenyl]-1H-indole]
28.2 µM |  |  | Cc1c(C)n(Cc2ccccc2)c2ccc(-c3ccc(OCc4nnn[nH]4)cc3)cc12 [1-Benzyl-2,3-dimethyl-5-[4-(1H-tetrazol-5-ylmethoxy)-phenyl]-1H-indole]
25.7 µM | 174 to 177 °C |  | Cc1c(-c2ccccc2)n(Cc2ccccc2)c2cccc(-c3ccc(OCc4nnn[nH]4)cc3)c12 [1-Benzyl-3-methyl-2-phenyl-4-[4-(1H-tetrazol-5-ylmethoxy)-phenyl]-1H-indole]
10.1 µM |  |  | Cc1c(-c2ccccc2)n(Cc2ccccc2)c2ccc(-c3ccc(OCc4nnn[nH]4)cc3)cc12 [1-Benzyl-3-methyl-2-phenyl-5-[4-(1H-tetrazol-5-ylmethoxy)-phenyl]-1H-indole]
36.9 µM |  |  | Cc1c(-c2ccccc2)n(Cc2ccccc2)c2cc(-c3ccc(OCc4nnn[nH]4)cc3)ccc12 [1-Benzyl-3-methyl-2-phenyl-6-[4-(1H-tetrazol-5-ylmethoxy)-phenyl]-1H-indole]
16.3 µM | 165 to 168 °C |  | CCCCCc1c(-c2ccccc2)n(Cc2ccccc2)c2ccc(-c3ccc(OCc4nnn[nH]4)cc3)cc12 [1-Benzyl-3-pentyl-2-phenyl-5-[4-(1H-tetrazol-5-ylmethoxy)-phenyl]-1H-indole]
36.4 µM |  |  | CCCCCc1c(-c2ccccc2)n(C)c2ccc(-c3ccc(OCc4nnn[nH]4)cc3)cc12 [1-Methyl-3-pentyl-2-phenyl-5-[4-(1H-tetrazol-5-ylmethoxy)-phenyl]-1H-indole]
43.9 µM |  |  | Cc1c(Cc2ccccc2)c2cc(-c3ccc(OCc4nnn[nH]4)cc3)ccc2n1C [3-Benzyl-1,2-dimethyl-5-[4-(1H-tetrazol-5-ylmethoxy)-phenyl]-1H-indole]
 |  | 56% | Cn1c(-c2ccccc2)c(Cc2ccccc2)c2cc(-c3ccc(OCc4nnn[nH]4)cc3)ccc21 [3-Benzyl-1-methyl-2-phenyl-5-[4-(1H-tetrazol-5-ylmethoxy)-phenyl]-1H-indole]
27.5 µM |  |  | c1ccc(Cn2c3c(c4cc(-c5ccc(OCc6nnn[nH]6)cc5)ccc42)CCCC3)cc1 [9-Benzyl-6-[4-(1H-tetrazol-5-ylmethoxy)-phenyl]-2,3,4,9-tetrahydro-1H-carbazole]
6.1 µM |  |  | Cn1c2c(c3cc(-c4ccc(OCc5nnn[nH]5)cc4)ccc31)CCCC2 [9-Methyl-6-[4-(1H-tetrazol-5-ylmethoxy)-phenyl]-2,3,4,9-tetrahydro-1H-carbazole]
25.3 µM | 180 to 183 °C |  | Cc1c(Cc2ccccc2)c2cc(-c3ccc(OCC(=O)O)cc3)ccc2n1Cc1ccccc1 [[4-(1,3-Dibenzyl-2-methyl-1H-indol-5-yl)-phenoxy]-acetic acid]
12.1 µM | 153 to 155 °C |  | O=C(O)COc1ccc(-c2ccc3c(c2)c(Cc2ccccc2)c(-c2ccccc2)n3Cc2ccccc2)cc1 [[4-(1,3-Dibenzyl-2-phenyl-1H-indol-5-yl)-phenoxy]-acetic acid]
33.9 µM | 177 to 180 °C |  | Cc1c(-c2ccccc2)n(C)c2cccc(-c3ccc(OCC(=O)O)cc3)c12 [[4-(1,3-Dimethyl-2-phenyl-1H-indol-4-yl)-phenoxy]-acetic acid]
51.5 µM | 203 to 206 °C |  | Cc1c(C)n(Cc2ccccc2)c2ccc(-c3ccc(OCC(=O)O)cc3)cc12 [[4-(1-Benzyl-2,3-dimethyl-1H-indol-5-yl)-phenoxy]-acetic acid]
23.1 µM | 82 to 86 °C |  | Cc1c(-c2ccccc2)n(Cc2ccccc2)c2cccc(-c3ccc(OCC(=O)O)cc3)c12 [[4-(1-Benzyl-3-methyl-2-phenyl-1H-indol-4-yl)-phenoxy]-acetic acid]
18.1 µM | 173.5 to 175 °C |  | Cc1c(-c2ccccc2)n(Cc2ccccc2)c2ccc(-c3ccc(OCC(=O)O)cc3)cc12 [[4-(1-Benzyl-3-methyl-2-phenyl-1H-indol-5-yl)-phenoxy]-acetic acid]
 | 202 to 205 °C | 27% | Cc1c(-c2ccccc2)n(Cc2ccccc2)c2cc(-c3ccc(OCC(=O)O)cc3)ccc12 [[4-(1-Benzyl-3-methyl-2-phenyl-1H-indol-6-yl)-phenoxy]-acetic acid]
15.4 µM | 141 to 143 °C |  | CCCCCc1c(-c2ccccc2)n(Cc2ccccc2)c2ccc(-c3ccc(OCC(=O)O)cc3)cc12 [[4-(1-Benzyl-3-pentyl-2-phenyl-1H-indol-5-yl)-phenoxy]-acetic acid]
 | 146 to 148 °C | 68% | CCCCCc1c(-c2ccccc2)n(C)c2ccc(-c3ccc(OCC(=O)O)cc3)cc12 [[4-(1-Methyl-3-pentyl-2-phenyl-1H-indol-5-yl)-phenoxy]-acetic acid]
38 µM | 204 to 207 °C |  | Cc1c(Cc2ccccc2)c2cc(-c3ccc(OCC(=O)O)cc3)ccc2n1C [[4-(3-Benzyl-1,2-dimethyl-1H-indol-5-yl)-phenoxy]-acetic acid]
 | 179 to 181 °C | 48% | Cn1c(-c2ccccc2)c(Cc2ccccc2)c2cc(-c3ccc(OCC(=O)O)cc3)ccc21 [[4-(3-Benzyl-1-methyl-2-phenyl-1H-indol-5-yl)-phenoxy]-acetic acid]
35.6 µM | 176 to 180 °C |  | O=C(O)COc1ccc(-c2ccc3c(c2)c2c(n3Cc3ccccc3)CCCC2)cc1 [[4-(9-Benzyl-6,7,8,9-tetrahydro-5H-carbazol-3-yl)-phenoxy]-acetic acid]
